System: lymphoma cell line DB
Assay: Serial dilutions: fixed ABT-199 concentration with Compound A titration, six-day cell proliferation
Assay type: cell-based
Conditions: for compound A required for gIC100: six days
Procedure: Serial dilutions were performed for the combination to ascertain the change in gIC50, gIC100 and dEC50 when the inhibitors are used together in a PRMT5 inhibitor cell proliferation. A first compound plate was prepared where PRMT5 inhibitor, Compound A, was prepared with a 20-point, two-fold dilution series of compound A from column 1 to 20. A second compound plate was prepared using the BCL-2 inhibitor ABT-199. ABT-199 was titrated in a 16-point 2-fold dilution series from row A to Q. A third plate was then created by added equal volume of 12 ul (ABT-199) from each well in the second plate into the corresponding well in the first plate. The third plate comprised rows from A to Q, each row comprising a fixed concentration of ABT-199. Columns 1-20 comprised varying concentrations of compound A from the 20-point dilution. Plates were incubated for six days at the conditions described above. Lymphoma cell line DB was treated with the solution in each of the wells. Cell growth was measured using CellTiter-Glo (Promega) and luminescence signal was detected with a BioTek Synergy Neo microplate reader. A plate of untreated cells was read at the time of compound/biologic addition to determine the T0 value representing the starting number of cells. Data were fit with a four-parameter equation to generate a concentration response curve for each row using Assay Client software. A comparison was made across each row in the third plate to determine, when keeping a fixed concentration of ABT-199, what concentration of compound A is needed to reach the gIC50, gIC100 or dEC50 respectively and the fold change compared to treating the same cell with compound A alone.
Tables 4a-c show the results of the above serial dilution experiments wherein ‘fold change’ is the difference between the amount of compound A needed to achieve gIC50, gIC100 or dEC50 respectively, compared to the amount of compound A needed to achieve gIC50, gIC100 or dEC50 respectively when compound A is given as a single agent.

O=C(NC[C@H](O)CN1CCc2ccccc2C1)c1ccnc(NC2CCC2)c1 [Compound A]
Fold change over compound A single agent gIC50 (631 nM, most potent of the two agents) (with fixed ABT-199 4 nM): 1.2 | Fold change over compound A single agent gIC100 (6489 nM, most potent of the two agents) (with fixed ABT-199 4 nM): 0.9 | compound A required for gIC100 (with fixed ABT-199 4 nM): 6989 nM | Fold change over compound A single agent gIC50 (631 nM, most potent of the two agents) (with fixed ABT-199 7 nM): 1.4 | Fold change over compound A single agent gIC100 (6489 nM, most potent of the two agents) (with fixed ABT-199 7 nM): 1.0 | compound A required for gIC100 (with fixed ABT-199 7 nM): 6362 nM | Fold change over compound A single agent gIC50 (631 nM, most potent of the two agents) (with fixed ABT-199 14 nM): 1.6 | Fold change over compound A single agent gIC100 (6489 nM, most potent of the two agents) (with fixed ABT-199 14 nM): 0.9 | compound A required for gIC100 (with fixed ABT-199 14 nM): 6896 nM | Fold change over compound A single agent gIC50 (631 nM, most potent of the two agents) (with fixed ABT-199 29 nM): 1.8 | Fold change over compound A single agent gIC100 (6489 nM, most potent of the two agents) (with fixed ABT-199 29 nM): 1.2 | compound A required for gIC100 (with fixed ABT-199 29 nM): 5525 nM | Fold change over compound A single agent gIC50 (631 nM, most potent of the two agents) (with fixed ABT-199 57 nM): 2.6 | Fold change over compound A single agent gIC100 (6489 nM, most potent of the two agents) (with fixed ABT-199 57 nM): 2.2 | Fold change over top concentration of compound A or ABT-199 inhibitor used in the assay (since no dEC50 observed with single agents) (with fixed ABT-199 57 nM): 1.2 | compound A required for gIC100 (with fixed ABT-199 57 nM): 3004 nM | Fold change over compound A single agent gIC50 (631 nM, most potent of the two agents) (with fixed ABT-199 115 nM): 3.0 | Fold change over compound A single agent gIC100 (6489 nM, most potent of the two agents) (with fixed ABT-199 115 nM): 2.4 | Fold change over top concentration of compound A or ABT-199 inhibitor used in the assay (since no dEC50 observed with single agents) (with fixed ABT-199 115 nM): 1.4 | compound A required for gIC100 (with fixed ABT-199 115 nM): 2716 nM | Fold change over compound A single agent gIC50 (631 nM, most potent of the two agents) (with fixed ABT-199 229 nM): 5.5 | Fold change over compound A single agent gIC100 (6489 nM, most potent of the two agents) (with fixed ABT-199 229 nM): 2.5 | Fold change over top concentration of compound A or ABT-199 inhibitor used in the assay (since no dEC50 observed with single agents) (with fixed ABT-199 229 nM): 1.4 | compound A required for gIC100 (with fixed ABT-199 229 nM): 2624 nM | Fold change over compound A single agent gIC50 (631 nM, most potent of the two agents) (with fixed ABT-199 458 nM): 5.3 | Fold change over compound A single agent gIC100 (6489 nM, most potent of the two agents) (with fixed ABT-199 458 nM): 3.1 | Fold change over top concentration of compound A or ABT-199 inhibitor used in the assay (since no dEC50 observed with single agents) (with fixed ABT-199 458 nM): 1.7 | compound A required for gIC100 (with fixed ABT-199 458 nM): 2118 nM | Fold change over compound A single agent gIC50 (631 nM, most potent of the two agents) (with fixed ABT-199 916 nM): 8.1 | Fold change over compound A single agent gIC100 (6489 nM, most potent of the two agents) (with fixed ABT-199 916 nM): 3.3 | Fold change over top concentration of compound A or ABT-199 inhibitor used in the assay (since no dEC50 observed with single agents) (with fixed ABT-199 916 nM): 2.6 | compound A required for gIC100 (with fixed ABT-199 916 nM): 1994 nM | Fold change over compound A single agent gIC50 (631 nM, most potent of the two agents) (with fixed ABT-199 1833 nM): 8.5 | Fold change over compound A single agent gIC100 (6489 nM, most potent of the two agents) (with fixed ABT-199 1833 nM): 4.0 | Fold change over top concentration of compound A or ABT-199 inhibitor used in the assay (since no dEC50 observed with single agents) (with fixed ABT-199 1833 nM): 3.1 | compound A required for gIC100 (with fixed ABT-199 1833 nM): 1604 nM | Fold change over compound A single agent gIC50 (631 nM, most potent of the two agents) (with fixed ABT-199 3666 nM): 7.8 | Fold change over compound A single agent gIC100 (6489 nM, most potent of the two agents) (with fixed ABT-199 3666 nM): 3.7 | Fold change over top concentration of compound A or ABT-199 inhibitor used in the assay (since no dEC50 observed with single agents) (with fixed ABT-199 3666 nM): 3.3 | compound A required for gIC100 (with fixed ABT-199 3666 nM): 1745 nM | Fold change over compound A single agent gIC50 (631 nM, most potent of the two agents) (with fixed ABT-199 7331 nM): 43 | Fold change over compound A single agent gIC100 (6489 nM, most potent of the two agents) (with fixed ABT-199 7331 nM): 3.8 | Fold change over top concentration of compound A or ABT-199 inhibitor used in the assay (since no dEC50 observed with single agents) (with fixed ABT-199 7331 nM): 3.2 | compound A required for gIC100 (with fixed ABT-199 7331 nM): 1707 nM
